Reference: PMC7529893, “Structural basis for substrate recognition and chemical inhibition of oncogenic MAGE ubiquitin ligases” (Nature Communications, 2020)

Molecular target: T1, MAGE-A11:PCF11 interaction (GST-MAGE-A11 and FAM-PCF11_4) (Homo sapiens, UniProt P43364)
T1 construct: GST-MAGE-A11 MHD (human MAGE-A11 MHD amino acid 218-429); made in house; host or cells: E. coli BL21(DE3)
T1 sequence (P43364 218-429): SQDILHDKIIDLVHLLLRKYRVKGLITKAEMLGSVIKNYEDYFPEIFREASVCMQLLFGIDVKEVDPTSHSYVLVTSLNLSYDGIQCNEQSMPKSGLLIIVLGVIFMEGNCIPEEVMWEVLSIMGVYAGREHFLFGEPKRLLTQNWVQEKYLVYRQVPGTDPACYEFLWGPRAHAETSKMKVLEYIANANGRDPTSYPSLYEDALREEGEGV
Assay: TR-FRET primary / single point screen at 15 µM
Assay type: binding
Description: The TR-FRET assay buffer with a formula of 50 mM Tris pH 7.5, 20 mM MgCl2, 0.1 mg/ml BSA and 1 mM DTT was freshly prepared before each experiment. All TR-FRET assays were performed in black 384-well plates with 20 µl/well assay volume in the TR-FRET assay buffer at room temperature (~25 °C). All peptides or compounds were solubilized in DMSO. To test the competitive activity of peptides or compounds against the interaction between GST-MAGE-A11 MHD and FAM-PCF11_4 peptide, 10 µl/well peptide or compound at specified concentration was dispensed into a black 384-well low volume plate, followed by 5 µl/well FAM-PCF11_4 (800 nM), 5 µl/well Tb-anti-GST (20 nM), and GST-MAGE-A11 MHD (20 nM). The assay components in each well was then mixed by shaking the plate on an IKA MTS 2/4 digital microtiter plate shaker (IKA Works; Wilmington, NC, USA) for 1 min. The plate was further centrifuged in an Eppendorf 5810 centrifuge with an A-4-62 swing-bucket rotor (Eppendorf AG, Hamburg, Germany) at 201 g for 30 s. The plate was then incubated for 90 min with a lid to avoid light exposure to the assay components. After incubation, the fluorescent emission signals at 520 nm and 490 nm channels of individual wells were measured with a PHERAstar FS plate reader (BMG Labtech; Durham, NC, USA) by using a 340 nm excitation filter, 100 µs delay time, and 200 µs integration time. The TR-FRET fluorescence emission ratio (TR-FRET signal) for each well was presented as 10,000 × 520 nm/490 nm, which was used directly for curve fitting, or further converted to %Inhibition based on the respective positive and negative controls. The graphic software GraphPad Prism 4.81 (GraphPad Software; La Jolla, CA, USA) was used to generate curves and derive IC50 values of tested peptides or compounds, if applicable. TR-FRET screen for identifying MAGE-A11 small molecule inhibitors was performed as follows. The primary one-concentration screening and subsequent 10 or 20-concentration dose-response tests were accomplished with an automated High Throughput Screening system (HighRes Biosolutions, Beverly, MA)[30]. In the primary screening, 15 µl/well FAM-PCF11_4 (267 nM) was first dispensed with a Multidrop Combi Reagent Dispenser (Thermo Fisher Scientific, Waltham, MA) to black 384-well low-volume assay plates. The plates were spun down with a Velocity11 VSpin microplate centrifuge (Agilent Technologies, Santa Clara, CA). In total, 30 nl/well of 10 mM compound/DMSO solutions, or DMSO alone, were transferred from compound plates (the St. Jude FDA drug and bioactive library, Drug-like library and Lead-like library) or a control plate to the assay plates with a Pin Tool (V&P Scientific, San Diego, CA). The compounds were arrayed in columns 3–12 and columns 15–24 of compound plates. The controls were arrayed in columns 1, 2, 13, and 14 of a compound plate. In all, 5 µl/well Tb-anti-GST (20 nM) and GST-MAGE-A11 (20 nM) or 5 µl/well Tb-anti-GST (20 nM) alone was then dispensed to selected wells with a Multidrop Combi Reagent Dispenser. The final assay volume was 20 µl/well. […] The final tested compound concentration was 15 µM. The final FAM-PCF11_4 concentration was 200 nM and the final Tb-anti-GST concentration was 5 nM. The final GST-MAGE-A11 concentration was 5 nM except for those selected positive control wells in which GST-MAGE-A11 was not presented. The plates were then shaken with a big bear shaker (Big Bear Automation, Santa Clara, California) and spun down with the Velocity11 VSpin microplate centrifuge for 20 s. The plates were then incubated at room temperature in a Liconic incubator (Liconic US, Woburn, MA) for 90 min. The TR-FRET signals for individual wells were measured with a PHERAstar FS plate reader. The %Inhibition of each tested inhibitor was calculated by using Eq. 1. Those inhibitors with %Inhibition >30% in the primary screening were selected for further dose-response test, along with additional newly synthesized compounds. […]

[1] = single point TR-FRET screening of quinoline compounds against MAGE-A11:PCF11, 15 µM
[2] = single point TR-FRET screening of 797 quinoline compounds against MAGE-A11:PCF11

| SMILES | percent inhibition (TR-FRET) [1] | percent inhibition (TR-FRET) [2] |
| --- | --- | --- |
| CCCCCCN(CCC)CCCNc1ccnc2cc(Cl)ccc12 [SJ000523048] | 1.317 | – |
| Cc1cc(NC(=O)CN2CCN(C)CC2)c2ccccc2n1 [SJ000111680] | – | 4.6472 |
| CCCN(CCCNc1c2ccc(Cl)cc2nc2ccc(OC)cc12)Cc1scnc1C [SJ000522976] | – | -127.026 |
| CCCN(CCCNc1c2ccc(Cl)cc2nc2ccc(OC)cc12)CCC(C)(C)C [SJ000522983] | – | -233.73 |
| CC(C)(C)c1ccc(Oc2ccc3c(NCCCNCc4ccco4)ccnc3c2)cc1 [SJ000311234] | 57.5354 | – |
| Clc1ccc2c(NCCCCN(Cc3ccccc3)Cc3ccccn3)ccnc2c1 [SJ000312690] | – | 9.5313 |
| COc1ccc(N2CCN(c3c(S(=O)(=O)c4ccccc4)cnc4ccc(F)cc34)CC2)cc1 [SJ000083982] | – | -32.8549 |
| CN(C)c1ccc(CN(CCCNc2ccnc3cc(Cl)ccc23)Cc2ccccc2)cc1 [SJ000522741] | 14.7648 | – |
| CCCN(CCCNc1c2ccc(Cl)cc2nc2ccc(OC)cc12)Cc1cccc2ccccc12 [SJ000520952] | -40.7667 | – |
| CCOC(=O)c1cnc2c(C)cc(Cl)cc2c1NCCCN1CCOCC1 [SJ000174094] | -10.5199 | – |
| CCC(C)CN(CCCCNc1ccnc2cc(Cl)ccc12)Cc1ccccc1 (centres unmarked) [SJ000361208] | – | 35.3677 |
| CN(C)CCCNc1c2c(nc3ccccc13)CCC2 [SJ000029259] | 24.0531 | – |
| CCN1CCN(c2c(C(=O)c3ccc(C)cc3)cnc3ccc(OC)cc23)CC1 [SJ000247282] | – | 3.9003 |
| Clc1ccc2c(NC3CCN(Cc4ccc(Br)o4)CC3)ccnc2c1 [SJ000357512] | – | -4.381 |
| COc1ccc2nc3cc(Cl)ccc3c(NCCCNCc3cc4ccccc4s3)c2c1 [SJ000521000] | – | -220.357 |
| Clc1ccc2c(NCCCNCc3cc4ccccc4o3)ccnc2c1 [SJ000521029] | 17.9065 | – |
| COc1ccc(O)c(CN(CCCNc2ccnc3cc(Cl)ccc23)Cc2ccccc2)c1 [SJ000357463] | 14.1686 | – |
| COc1ccc2nc3cc(Cl)ccc3c(NCCCNCc3ccccc3)c2c1 [SJ000361086] | – | -432.435 |
| Cc1ccc2ncc(S(=O)(=O)c3ccccc3)c(N3CCN(C)CC3)c2c1 [SJ000083945] | – | -8.419 |
| COC(=O)CCCCCNCCCNc1ccnc2cc(C(F)(F)F)ccc12 [SJ000521044] | 19.5869 | – |
| FC(F)(F)c1ccc2c(NCCCNCc3ccco3)ccnc2c1 [SJ000361113] | 18.0466 | – |
| CCCN(CCCCNc1ccnc2cc(Cl)ccc12)Cc1cc(F)ccc1OC [SJ000311202] | – | 5.3962 |
| COc1ccc2nc3cc(Cl)ccc3c(NCCCNCc3ccc4ccccc4c3)c2c1 [SJ000523038] | – | -109.452 |
| CCOC(=O)c1cnc2c(C)cc(C)cc2c1NCCCN1CCOCC1 [SJ000173725] | 6.494 | – |
| Clc1ccc2c(NC3CCN(Cc4ccc(Cl)o4)CC3)ccnc2c1 [SJ000311180] | – | 0.6827 |
| Clc1ccc2c(NCCCNCc3ccc[nH]3)ccnc2c1 [SJ000575192] | 52.9917 | – |
| CCCN(CCCNc1ccnc2cc(C(F)(F)F)ccc12)Cc1cccc(C)c1 [SJ000523076] | 20.1719 | – |
| Cn1ccnc1CN(CCCCNc1ccnc2cc(Cl)ccc12)Cc1ccccc1 [SJ000520435] | – | 5.888 |
| O=S(=O)(c1ccccc1)c1cnc2ccc(Cl)cc2c1N1CCN(c2ccccc2F)CC1 [SJ000315176] | – | -5.441 |
